# Experimental data: US8962843B2, “1,3,4-oxadiazole and 1,3,4-thiadiazole beta-lactamase inhibitors” (priority 2012, dated 2015)
# Structures can show the parent of a compound that is named as a salt.
# Test system: bacterial strains that express the class D cephalosporinase OXA-15
# Test: Standard BLI potentiation MIC / synergy MIC assays, strains expressing OXA-15
# Type: cell-based, E. coli
# Conditions: in combination with a β-lactam; comparator Avibactam (CCC)
# Method: The experimental protocol was performed according to Clinical and Laboratory Standards Institute (CLSI) guidelines with modifications as described below (CLSI guidelines can be derived from the CLSI document M07-A9 published in January 2012: “Methods for Dilution Antimicrobial Susceptibility Tests for Bacteria That Grow Aerobically; Approved Standard-Ninth Edition”).
# To prepare for MIC testing, frozen glycerol stocks of clinical isolates (Klebsiella pneumoniae, Eschericia coli, Enterobacter spp, Citrobacter spp, or Pseudomonas aeruginosa) were used to streak for isolated colonies on rich, non-selective, tryptic soy agar containing 5% sheep's blood (TSAB). Frozen glycerol stocks of laboratory engineered, isogenic E. coli strains, which contain cloned β-lactamase expressing plasmids were used to streak for isolated colonies on rich, selective LB agar supplemented with 25 μg/mL tetracycline to maintain the plasmid. All strains were incubated at 37° C. for 18-24 hrs.
# On the day of testing, primary cultures were started by scraping off 5-10 colonies from the TSAB plates containing clinical strains or the tetracycline supplemented LB plates containing engineered strains. The clinical strain material was suspended in ˜5 mL of cation adjusted Mueller Hinton Broth (CAMHB) in 14 mL culture tubes. The engineered strain material was suspended in CAMHB (supplemented with 25 μg/mL tetracycline) in 14 mL culture tubes. All strains were incubated at 37° C. with aeration (200 rpm) for ˜2 hrs until the optical density at 600 nm (OD600) was >0.1.
# The two compound components of the assay were each diluted in CAMHB and added to the 96-well broth microdilution assay plates. 50 μL of the β-lactam was added to each well of the assay plate in 2-fold dilutions with final concentrations ranging from 128 to 0.13 μg/mL. 25 μL of the BLI compound was added to all wells in the broth microdilution plates at a final concentration of 4 μg/mL. Inoculum cultures were prepared by standardizing the primary cultures to OD600=0.1 and then adding 20 μL of the adjusted primary culture per 1 mL CAMHB for clinical strains or CAMHB (supplemented with tetracycline at 100 μg/mL) for engineered strains, so that the final inoculum density was ˜10^5 colony forming units per milliliter. Diluted inoculum cultures were used to inoculate 25 μl, per well in 96-well broth microdilution assay plates. The final volume of each well was 100 μL and contained a β-lactam at different concentrations, a BLlcompound at 4 μg/mL concentration, the bacterial culture at an OD600 of approximately 0.001 and when necessary tetracycline at 25 μg/mL.
# Plates were incubated for 18-20 hours at 37° C. with aeration (200 rpm). Following incubation, growth was confirmed visually placing plates over a viewing apparatus (stand with a mirror underneath) and then OD600 was measured using a SpectraMax 340PC384 plate reader (Molecular Devices, Sunnyvale, Calif.). Growth was defined as turbidity that could be detected with the naked eye or achieving minimum OD600 of 0.1. MIC values were defined as the lowest concentration producing no visible turbidity.
# The synergy MIC (sMIC) assay determines the concentration of the BLI required to potentiate the activity of a fixed concentration of a β-lactam antibiotic against β-lactamase producing bacterial strains. The experimental protocol was performed according to Clinical and Laboratory Standards Institute (CLSI) guidelines with modifications as described below (CLSI guidelines can be derived from the CLSI document M07-A9 published in January 2012: “Methods for Dilution Antimicrobial Susceptibility Tests for Bacteria That Grow Aerobically; Approved Standard-Ninth Edition”). […]
row,Compound,"activity against bacterial strains that express the class D cephalosporinase OXA-15, compared with Avibactam"
1,"NCC(N)c1nnc([C@@H]2CC[C@@H]3CN2C(=O)N3OS(=O)(=O)O)o1 (stereo partly drawn) [Compound 717, (2S,5R)-2-(5-(1,2-diaminoethyl)-1,3,4-oxadiazol-2-yl)-7-oxo-1,6-diazabicyclo[3.2.1]octan-6-yl hydrogen sulfate]",more active than Avibactam
2,"NCC(O)c1nnc([C@@H]2CC[C@@H]3CN2C(=O)N3OS(=O)(=O)O)o1 (stereo partly drawn) [Compound 715, (2S,5R)-2-(5-(2-amino-1-hydroxyethyl)-1,3,4-oxadiazol-2-yl)-7-oxo-1,6-diazabicyclo[3.2.1]octan-6-yl hydrogen sulfate]",more active than Avibactam
3,"O=C1N2C[C@@H](CC[C@H]2c2nnc(CC3CNC3)o2)N1OS(=O)(=O)O [Compound 725, (2S,5R)-2-(5-(azetidin-3-ylmethyl)-1,3,4-oxadiazol-2-yl)-7-oxo-1,6-diazabicyclo[3.2.1]octan-6-yl hydrogen sulfate]",more active than Avibactam
4,"N[C@H]1C[C@H](NCc2nnc([C@@H]3CC[C@@H]4CN3C(=O)N4OS(=O)(=O)O)o2)C1 [Compound 757, (2S,5R)-2-(5-((((1r,3S)-3-aminocyclobutyl)amino)methyl)-1,3,4-oxadiazol-2-yl)-7-oxo-1,6-diazabicyclo[3.2.1]octan-6-yl hydrogen sulfate]",more active than Avibactam
5,"N=C(N)N1CCC(c2nnc([C@@H]3CC[C@@H]4CN3C(=O)N4OS(=O)(=O)O)o2)CC1 [Compound 712, (2S,5R)-2-(5-(1-carbamimidoylpiperidin-4-yl)-1,3,4-oxadiazol-2-yl)-7-oxo-1,6-diazabicyclo[3.2.1]octan-6-yl hydrogen sulfate]",more active than Avibactam
6,"O=C1N2C[C@@H](CC[C@H]2c2nnc([C@@H]3CNCCN3)o2)N1OS(=O)(=O)O [Compound 778, (2S,5R)-7-oxo-2-(5((S)-piperazin-2-yl)-1,3,4-oxadiazol-2-yl)-1,6-diazabicyclo[3.2.1]octan-6-yl hydrogen sulfate]",more active than Avibactam
7,"N[C@H]1CC[C@H](c2nnc([C@@H]3CC[C@@H]4CN3C(=O)N4OS(=O)(=O)O)o2)CC1 [Compound 781, (2S,5R)-2-(5-((1r,4S)-4-aminocyclohexyl)-1,3,4-oxadiazol-2-yl)-7-oxo-1,6-diazabicyclo[3.2.1]octan-6-yl hydrogen sulfate]",more active than Avibactam
8,"N=C(N)NCc1nnc([C@@H]2CC[C@@H]3CN2C(=O)N3OS(=O)(=O)O)o1 [Compound 704, (2S,5R)-2-(5-(guanidinomethyl)-1,3,4-oxadiazol-2-yl)-7-oxo-1,6-diazabicyclo[3.2.1]octan-6-yl hydrogen sulfate]",more active than Avibactam
9,"N=C(N)N[C@H]1C[C@H](c2nnc([C@@H]3CC[C@@H]4CN3C(=O)N4OS(=O)(=O)O)o2)C1 [Compound 748, (2S,5R)-2-(5-((1r,3S)-3-guanidinocyclobutyl)-1,3,4-oxadiazol-2-yl)-7-oxo-1,6-diazabicyclo[3.2.1]octan-6-yl hydrogen sulfate]",more active than Avibactam
10,"O=C1N2C[C@@H](CC[C@H]2c2nnc(CNC3CCNCC3)o2)N1OS(=O)(=O)O [Compound 769, (2S,5R)-7-oxo-2-(5-((piperidin-4-ylamino)methyl)-1,3,4-oxadiazol-2-yl)-1,6-diazabicyclo[3.2.1]octan-6-yl hydrogen sulfate]",more active than Avibactam
11,"O=C1N2C[C@@H](CC[C@H]2c2nnc(N3CCNCC3)s2)N1OS(=O)(=O)O [Compound 797, (2S,5R)-7-oxo-2-(5-(piperazin-1-yl)-1,3,4-thiadiazol-2-yl)-1,6-diazabicyclo[3.2.1]octan-6-yl hydrogen sulfate]",more active than Avibactam
12,"O=C1N2C[C@@H](CC[C@H]2c2nnc(CCCN3CCNCC3)o2)N1OS(=O)(=O)O [Compound 792, (2S,5R)-7-oxo-2-(5-(3-(piperazin-1-yl)propyl)-1,3,4-oxadiazol-2-yl)-1,6-diazabicyclo[3.2.1]octan-6-yl hydrogen sulfate]",more active than Avibactam
13,"N[C@H]1CC[C@@H](c2nnc([C@@H]3CC[C@@H]4CN3C(=O)N4OS(=O)(=O)O)o2)CC1 [Compound 780, (2S,5R)-2-(5-((1s,4R)-4-aminocyclohexyl)-1,3,4-oxadiazol-2-yl)-7-oxo-1,6-diazabicyclo[3.2.1]octan-6-yl hydrogen sulfate]",more active than Avibactam
14,"O=C1N2C[C@@H](CC[C@H]2c2nnc(C3CCNCC3)s2)N1OS(=O)(=O)O [Compound 719, (2S,5R)-7-oxo-2-(5-(piperidin-4-yl)-1,3,4-thiadiazol-2-yl)-1,6-diazabicyclo[3.2.1]octan-6-yl hydrogen sulfate]",more active than Avibactam
15,"N=C(N)NCCCc1nnc([C@@H]2CC[C@@H]3CN2C(=O)N3OS(=O)(=O)O)o1 [Compound 714, (2S,5R)-2-(5-(3-guanidinopropyl)-1,3,4-oxadiazol-2-yl)-7-oxo-1,6-diazabicyclo[3.2.1]octan-6-yl hydrogen sulfate]",more active than Avibactam
16,"NCC(O)Cc1nnc([C@@H]2CC[C@@H]3CN2C(=O)N3OS(=O)(=O)O)o1 (stereo partly drawn) [Compound 733, (2S,5R)-2-(5-(3-amino-2-hydroxypropyl)-1,3,4-oxadiazol-2-yl)-7-oxo-1,6-diazabicyclo[3.2.1]octan-6-yl hydrogen sulfate]",more active than Avibactam
17,"NCCNCCc1nnc([C@@H]2CC[C@@H]3CN2C(=O)N3OS(=O)(=O)O)o1 [Compound 716, (2S,5R)-2-(5-(2-((2-aminoethyl)amino)ethyl)-1,3,4-oxadiazol-2-yl)-7-oxo-1,6-diazabicyclo[3.2.1]octan-6-yl hydrogen sulfate]",more active than Avibactam
18,"NC1CCN(c2nnc([C@@H]3CC[C@@H]4CN3C(=O)N4OS(=O)(=O)O)o2)CC1 [Compound 773, (2S,5R)-2-(5-(4-aminopiperidin-1-yl)-1,3,4-oxadiazol-2-yl)-7-oxo-1,6-diazabicyclo[3.2.1]octan-6-yl hydrogen sulfate]",more active than Avibactam
19,"Nc1nnc([C@@H]2CC[C@@H]3CN2C(=O)N3OS(=O)(=O)O)o1 [Compound 707, (2S,5R)-2-(5-amino-1,3,4-oxadiazol-2-yl)-7-oxo-1,6-diazabicyclo[3.2.1]octan-6-yl hydrogen sulfate]",more active than Avibactam
20,"O=C1N2C[C@@H](CC[C@H]2c2nnc(N3CCNCC3)o2)N1OS(=O)(=O)O [Compound 713, (2S,5R)-7-oxo-2-(5-(piperazin-1-yl)-1,3,4-oxadiazol-2-yl)-1,6-diazabicyclo[3.2.1]octan-6-yl hydrogen sulfate]",more active than Avibactam
